pKi: −log10 of the molar value.
Assays:
Mu-type opioid receptor = Mu-type opioid receptor (Bos taurus, UniProt P79350)
Opioid receptor delta 1 = Opioid receptor delta 1 (Bos taurus, UniProt F1N083)
Chain of Opioid receptor delta 1 (F1N083 whole entry): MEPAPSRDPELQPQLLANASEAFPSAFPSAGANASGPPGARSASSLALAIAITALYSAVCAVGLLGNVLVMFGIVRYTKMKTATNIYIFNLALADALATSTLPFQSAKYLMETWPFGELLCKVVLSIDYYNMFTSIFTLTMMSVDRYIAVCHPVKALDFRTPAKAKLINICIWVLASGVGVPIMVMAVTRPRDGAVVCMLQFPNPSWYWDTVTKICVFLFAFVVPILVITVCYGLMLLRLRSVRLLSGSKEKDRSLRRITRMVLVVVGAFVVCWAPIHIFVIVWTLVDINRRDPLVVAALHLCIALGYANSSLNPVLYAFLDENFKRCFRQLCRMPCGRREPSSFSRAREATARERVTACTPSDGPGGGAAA

Chain of Mu-type opioid receptor (P79350 whole entry): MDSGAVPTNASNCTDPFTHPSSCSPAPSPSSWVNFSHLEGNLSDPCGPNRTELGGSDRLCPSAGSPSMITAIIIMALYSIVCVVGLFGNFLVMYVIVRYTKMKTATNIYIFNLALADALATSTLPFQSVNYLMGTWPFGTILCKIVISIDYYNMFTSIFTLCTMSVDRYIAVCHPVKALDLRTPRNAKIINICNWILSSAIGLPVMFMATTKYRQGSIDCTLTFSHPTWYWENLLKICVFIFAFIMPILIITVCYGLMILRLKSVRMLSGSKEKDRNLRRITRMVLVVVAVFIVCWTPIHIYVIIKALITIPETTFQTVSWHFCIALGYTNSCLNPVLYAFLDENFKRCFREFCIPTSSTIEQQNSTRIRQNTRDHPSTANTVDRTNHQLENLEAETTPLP

Compound	pKi (Mu-type opioid receptor)	pKi (Opioid receptor delta 1)
COc1ccc2c3c1O[C@H]1C(=O)CCC4(NC(=O)/C=C\c5ccc(Cl)cc5)C(C2)N(CC2CC2)CCC314 (stereo partly specified) [MC-CAM]	8.85	7.92
COc1ccc2c3c1O[C@H]1C(=O)CCC4(NC(=O)/C=C\c5ccc(Cl)cc5)C(C2)N(C)CCC314 (stereo partly specified) [CAM]	9.92	9.12
COc1ccc2c3c1O[C@H]1C(=O)CCC4(NC(=O)/C=C\c5ccc([N+](=O)[O-])cc5)C(C2)N(C)CCC314 (stereo partly specified) [CACO]	9.34	
COc1ccc2c3c1O[C@H]1C(=O)CCC4(NC(=O)/C=C\c5ccc([N+](=O)[O-])cc5)C(C2)N(CC2CC2)CCC314 (stereo partly specified) [N-CPM-CACO]		7.80

From BindingDB's records for PubMed 10087018 (University of Rochester, 1999)
